Assay results as given in ChEMBL document CHEMBL1909046, “DrugMatrix in vitro pharmacology data”.
Where a SMILES comes first, the peptide text is derived from it. Bridges are numbered along the chain shown (N, C = ends). [ ]: non-standard residue; d: D form. The star is where a group is joined. Threoninol(2S,3R) = C[C@@H](O)[C@H](CO)N*

Key:
[1] = target: T1, Thromboxane-A synthase (Homo sapiens, UniProt P24557); assay: biochemical; format: tissue-based, Platelet; settings: platelet;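 also: enzyme inhibition assay with PGH2 supplied as substrate; in other assays of this panel Not Active means under 50% inhibition at 10 µM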
T1 sequence (P24557 whole entry): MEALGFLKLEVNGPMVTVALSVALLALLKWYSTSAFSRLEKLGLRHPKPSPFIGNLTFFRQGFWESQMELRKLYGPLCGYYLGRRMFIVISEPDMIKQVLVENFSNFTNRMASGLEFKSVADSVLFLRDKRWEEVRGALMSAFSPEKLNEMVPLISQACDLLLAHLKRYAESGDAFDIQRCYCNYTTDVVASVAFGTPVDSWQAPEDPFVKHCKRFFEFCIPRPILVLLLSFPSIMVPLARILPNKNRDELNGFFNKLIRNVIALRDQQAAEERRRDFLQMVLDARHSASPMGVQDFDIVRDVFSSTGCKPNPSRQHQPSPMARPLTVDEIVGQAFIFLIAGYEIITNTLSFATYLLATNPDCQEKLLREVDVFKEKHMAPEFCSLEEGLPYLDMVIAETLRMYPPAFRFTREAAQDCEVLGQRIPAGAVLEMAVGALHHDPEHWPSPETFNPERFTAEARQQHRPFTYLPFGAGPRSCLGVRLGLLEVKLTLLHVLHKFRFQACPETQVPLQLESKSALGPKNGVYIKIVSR

[2] = target: Kappa-type opioid receptor (Homo sapiens, UniProt P41145); assay: DRUGMATRIX: Opiate kappa (OP2, KOP) radioligand binding (ligand: [3H] Diprenorphine); format: cell membranes, HEK293, Membrane; settings: hek293; Not Active = under 50% inhibition at 10 µM
Kappa-type opioid receptor, sequence (P41145 whole entry): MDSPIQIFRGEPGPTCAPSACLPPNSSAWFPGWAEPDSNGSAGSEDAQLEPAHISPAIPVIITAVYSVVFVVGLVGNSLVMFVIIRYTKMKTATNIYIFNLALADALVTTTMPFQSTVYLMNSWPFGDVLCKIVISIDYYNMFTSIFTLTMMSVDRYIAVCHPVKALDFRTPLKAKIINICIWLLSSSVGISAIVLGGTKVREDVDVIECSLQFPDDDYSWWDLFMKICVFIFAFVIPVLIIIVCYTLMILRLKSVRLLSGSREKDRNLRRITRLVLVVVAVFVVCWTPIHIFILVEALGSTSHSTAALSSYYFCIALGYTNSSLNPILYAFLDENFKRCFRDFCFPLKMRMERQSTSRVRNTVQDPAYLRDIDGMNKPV

[3] = DRUGMATRIX: ATPase, Na+/K+ enzyme inhibition (substrate: ATP); format: tissue-based, Sus scrofa, Heart; settings: Not Active = under 50% inhibition at 10 µM
[4] = target: T2, Receptor-type tyrosine-protein phosphatase C (Homo sapiens, UniProt P08575); design: species or system Escherichia coli;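 also: inhibition of CD45 enzyme activity measured using DiFMUP as substrate; in other assays of this panel Not Active means under 50% inhibition at 10 µM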
T2 sequence (P08575 whole entry): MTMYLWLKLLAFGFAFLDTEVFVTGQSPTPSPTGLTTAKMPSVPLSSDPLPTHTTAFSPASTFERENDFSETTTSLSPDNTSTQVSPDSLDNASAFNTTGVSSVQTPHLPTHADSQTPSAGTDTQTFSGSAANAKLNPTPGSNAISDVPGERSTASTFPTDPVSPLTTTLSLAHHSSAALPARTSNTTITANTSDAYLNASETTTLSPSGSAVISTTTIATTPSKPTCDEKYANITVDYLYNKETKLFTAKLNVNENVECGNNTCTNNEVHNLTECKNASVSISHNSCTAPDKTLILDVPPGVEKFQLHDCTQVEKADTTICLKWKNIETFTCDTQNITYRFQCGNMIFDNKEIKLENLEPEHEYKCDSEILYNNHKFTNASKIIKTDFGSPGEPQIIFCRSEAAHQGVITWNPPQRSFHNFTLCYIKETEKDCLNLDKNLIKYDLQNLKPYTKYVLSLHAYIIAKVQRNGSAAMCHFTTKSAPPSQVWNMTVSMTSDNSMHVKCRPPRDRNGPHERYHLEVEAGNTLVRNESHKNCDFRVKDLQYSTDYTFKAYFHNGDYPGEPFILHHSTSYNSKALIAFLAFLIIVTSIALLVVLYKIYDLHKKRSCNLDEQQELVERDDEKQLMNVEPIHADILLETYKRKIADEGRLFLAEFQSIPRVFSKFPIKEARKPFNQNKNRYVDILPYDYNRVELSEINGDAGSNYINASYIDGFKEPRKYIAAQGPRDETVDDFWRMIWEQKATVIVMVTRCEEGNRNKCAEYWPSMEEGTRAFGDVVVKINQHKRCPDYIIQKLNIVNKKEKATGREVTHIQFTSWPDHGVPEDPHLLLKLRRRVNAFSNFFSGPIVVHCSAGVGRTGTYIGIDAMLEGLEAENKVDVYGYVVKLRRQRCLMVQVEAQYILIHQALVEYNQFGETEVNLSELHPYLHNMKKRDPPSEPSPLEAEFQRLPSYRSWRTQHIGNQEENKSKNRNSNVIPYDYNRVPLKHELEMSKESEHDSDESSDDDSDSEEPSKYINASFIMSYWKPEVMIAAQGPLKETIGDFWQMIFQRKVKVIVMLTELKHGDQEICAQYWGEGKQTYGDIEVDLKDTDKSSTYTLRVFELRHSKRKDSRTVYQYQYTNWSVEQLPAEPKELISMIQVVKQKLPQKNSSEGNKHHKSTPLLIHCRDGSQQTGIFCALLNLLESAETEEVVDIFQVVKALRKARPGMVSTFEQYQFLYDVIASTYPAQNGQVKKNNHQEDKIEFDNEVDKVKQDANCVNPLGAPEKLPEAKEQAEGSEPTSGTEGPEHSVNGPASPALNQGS

[5] = target: T3, B2 bradykinin receptor (Homo sapiens, UniProt P30411); format: cell membranes, Membrane; settings: chem-1; also: in other assays of this panel Not Active means under 50% inhibition at 10 µM
T3 sequence (P30411 whole entry): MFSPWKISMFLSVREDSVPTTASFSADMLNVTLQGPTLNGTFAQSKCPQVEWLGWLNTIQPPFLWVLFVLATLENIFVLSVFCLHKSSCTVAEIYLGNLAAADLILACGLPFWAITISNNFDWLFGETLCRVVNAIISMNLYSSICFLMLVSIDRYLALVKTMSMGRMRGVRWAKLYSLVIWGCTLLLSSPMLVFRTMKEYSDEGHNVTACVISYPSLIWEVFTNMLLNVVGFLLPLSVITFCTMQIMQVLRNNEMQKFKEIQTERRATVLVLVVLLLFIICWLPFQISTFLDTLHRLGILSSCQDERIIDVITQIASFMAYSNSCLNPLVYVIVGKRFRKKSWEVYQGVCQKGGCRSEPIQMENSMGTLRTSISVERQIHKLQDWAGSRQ

[6] = target: T4, Cathepsin G (Homo sapiens, UniProt P08311); format: tissue-based; settings: neutrophil;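 also: inhibition of Cathepsin G enzyme activity, tested on an AMC-conjugated peptide substrate; in other assays of this panel Not Active means under 50% inhibition at 10 µM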
T4 sequence (P08311 whole entry): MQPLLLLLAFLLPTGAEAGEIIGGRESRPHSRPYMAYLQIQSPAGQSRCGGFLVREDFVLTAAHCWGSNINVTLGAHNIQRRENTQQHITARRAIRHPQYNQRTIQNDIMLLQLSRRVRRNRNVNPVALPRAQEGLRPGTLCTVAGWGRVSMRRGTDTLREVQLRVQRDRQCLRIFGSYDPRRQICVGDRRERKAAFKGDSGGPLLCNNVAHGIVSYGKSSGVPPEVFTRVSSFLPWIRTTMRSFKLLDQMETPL

COc1ccccc1C(=O)N1CCC(Cc2ccccc2)CC1
Not Active: IC50 [1] | IC50 [2] | IC50 [3] | Ki [3] | IC50 [4] | IC50 [5] | IC50 [6]

Cc1ccccc1C(=O)N1CCC(Cc2ccccc2)CC1
Not Active: IC50 [1] | IC50 [2] | IC50 [3] | Ki [3] | IC50 [4] | IC50 [5] | IC50 [6]

O=C1CC[C@H](N2C(=O)c3ccccc3C2=O)C(=O)N1
Not Active: IC50 [1] | IC50 [2] | IC50 [3] | Ki [3] | IC50 [4] | IC50 [5] | IC50 [6]

N=C(Nc1ccccc1)Nc1ccccc1
Not Active: IC50 [1] | IC50 [2] | IC50 [3] | Ki [3] | IC50 [4] | IC50 [5] | IC50 [6]

C[C@@H](O)[C@H](CO)NC(=O)[C@@H]1CSSC[C@H](NC(=O)[C@H](N)Cc2ccccc2)C(=O)N[C@@H](Cc2ccccc2)C(=O)N[C@H](Cc2c[nH]c3ccccc23)C(=O)N[C@@H](CCCCN)C(=O)N[C@@H]([C@@H](C)O)C(=O)N1 (H-[dF]CF[dW]KTC-{Threoninol(2S,3R)}; disulfide 2-7)
Not Active: IC50 [1] | IC50 [2] | IC50 [3] | Ki [3] | IC50 [4] | IC50 [5] | IC50 [6]

S=C=Nc1cccc2ccccc12 [1-NAPHTHYLISOTHIOCYANATE]
Not Active: IC50 [1] | IC50 [3] | Ki [3] | IC50 [4] | IC50 [5] | IC50 [6]

C[C@](O)(CS(=O)(=O)c1ccc(F)cc1)C(=O)Nc1ccc(C#N)c(C(F)(F)F)c1 [(R)-BICALUTAMIDE]
Not Active: IC50 [1] | IC50 [2] | IC50 [3] | Ki [3] | IC50 [4] | IC50 [5] | IC50 [6]

CCCC(=O)Nc1ccc(OCC(O)CNC(C)C)c(C(C)=O)c1 (centres undefined) [ACEBUTOLOL]
Not Active: IC50 [1] | IC50 [2] | IC50 [3] | Ki [3] | IC50 [4] | IC50 [5] | IC50 [6]

CC(=O)Nc1ccc(O)cc1 [ACETAMINOPHEN]
Not Active: IC50 [1] | IC50 [3] | Ki [3] | IC50 [4] | IC50 [5] | IC50 [6]

COc1cc2c(c3oc(=O)c4c(c13)CCC4=O)[C@@H]1C=CO[C@@H]1O2 [AFLATOXIN]
Not Active: IC50 [1] | Ki [1] | IC50 [2] | Ki [2] | IC50 [3] | Ki [3] | IC50 [4] | Ki [4] | IC50 [5] | Ki [5] | IC50 [6] | Ki [6]

N=C(N)NC(=O)c1nc(Cl)c(N)nc1N [AMILORIDE]
Not Active: IC50 [1] | IC50 [2] | IC50 [3] | Ki [3] | IC50 [4] | IC50 [5] | IC50 [6]

Cc1cc(=O)n(-c2ccccc2)n1C [ANTIPYRINE]
Not Active: IC50 [1] | IC50 [2] | IC50 [3] | Ki [3] | IC50 [4] | IC50 [5] | IC50 [6]

CN1C(=O)COc2c(C(=O)NC3CN4CCC3CC4)cc(Cl)cc21 (centres undefined) [AZASETRON]
Not Active: IC50 [1] | IC50 [2] | IC50 [3] | Ki [3] | IC50 [4] | IC50 [5] | IC50 [6]

C[C@H]1C[C@H]2[C@@H]3CCC4=CC(=O)C=C[C@]4(C)[C@@]3(Cl)[C@@H](O)C[C@]2(C)[C@@]1(O)C(=O)CO [BECLOMETHASONE]
Not Active: IC50 [1] | IC50 [2] | IC50 [3] | Ki [3] | IC50 [4] | IC50 [5] | IC50 [6]

CCOC(=O)[C@H](CCc1ccccc1)N[C@H]1CCc2ccccc2N(CC(=O)O)C1=O [BENAZEPRIL]
Not Active: IC50 [1] | IC50 [2] | IC50 [3] | Ki [3] | IC50 [4] | IC50 [5] | IC50 [6]

Nc1c(CC(=O)O)cccc1C(=O)c1ccc(Br)cc1 [BROMFENAC]
Not Active: IC50 [1] | IC50 [2] | IC50 [3] | Ki [3] | IC50 [4] | IC50 [5] | IC50 [6]

CCCCN1CCCCC1C(=O)Nc1c(C)cccc1C.Cl (centres undefined) [BUPIVACAINE HYDROCHLORIDE]
Not Active: IC50 [1] | IC50 [2] | IC50 [3] | Ki [3] | IC50 [4] | IC50 [5] | IC50 [6]

O=C1CC2(CCCC2)CC(=O)N1CCCCN1CCN(c2ncccn2)CC1 [BUSPIRONE]
Not Active: IC50 [1] | IC50 [2] | IC50 [3] | Ki [3] | IC50 [4] | IC50 [5] | IC50 [6]

C[C@@]12C(=O)OC(=O)[C@]1(C)[C@H]1CC[C@@H]2O1 [CANTHARIDIN]
Not Active: IC50 [1] | IC50 [3] | Ki [3] | IC50 [4] | IC50 [5] | IC50 [6]

O=NN(CCCl)C(=O)NCCCl [CARMUSTINE]
Not Active: IC50 [1] | IC50 [2] | IC50 [3] | Ki [3] | IC50 [4] | IC50 [5] | IC50 [6]

C[C@@H]1C[C@@H]([C@H](O)CC2CC(=O)NC(=O)C2)C(=O)[C@@H](C)C1 [CYCLOHEXIMIDE]
Not Active: IC50 [1] | IC50 [3] | Ki [3] | IC50 [4] | IC50 [5] | IC50 [6]

COP(=O)(OC)OC=C(Cl)Cl [DICHLORVOS]
Not Active: IC50 [1] | IC50 [3] | Ki [3] | IC50 [4] | IC50 [5] | IC50 [6]

CADMIUM DICHLORIDE
Not Active: IC50 [1] | Ki [1] | IC50 [3] | Ki [3] | IC50 [4] | Ki [4] | IC50 [5] | Ki [5] | IC50 [6] | Ki [6]
